Test [1] is described as follows: NIH-3T3 fibroblast cytotoxicity, dose response, cytotoxicity control, cell-based, fluorescence, Alamar Blue, secondary assay (AID 2327).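 Further: NIH-3T3 mouse fibroblasts cultured with fluconazole at 8 µg/mL.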 Type of test: functional. For orientation: Alamar Blue is a resazurin reagent that responds to reducing activity.
In test [2] the target is T1, Aminopeptidase N (Plasmodium falciparum FcB1/Columbia, UniProt O96935).
T1 sequence (O96935 whole entry): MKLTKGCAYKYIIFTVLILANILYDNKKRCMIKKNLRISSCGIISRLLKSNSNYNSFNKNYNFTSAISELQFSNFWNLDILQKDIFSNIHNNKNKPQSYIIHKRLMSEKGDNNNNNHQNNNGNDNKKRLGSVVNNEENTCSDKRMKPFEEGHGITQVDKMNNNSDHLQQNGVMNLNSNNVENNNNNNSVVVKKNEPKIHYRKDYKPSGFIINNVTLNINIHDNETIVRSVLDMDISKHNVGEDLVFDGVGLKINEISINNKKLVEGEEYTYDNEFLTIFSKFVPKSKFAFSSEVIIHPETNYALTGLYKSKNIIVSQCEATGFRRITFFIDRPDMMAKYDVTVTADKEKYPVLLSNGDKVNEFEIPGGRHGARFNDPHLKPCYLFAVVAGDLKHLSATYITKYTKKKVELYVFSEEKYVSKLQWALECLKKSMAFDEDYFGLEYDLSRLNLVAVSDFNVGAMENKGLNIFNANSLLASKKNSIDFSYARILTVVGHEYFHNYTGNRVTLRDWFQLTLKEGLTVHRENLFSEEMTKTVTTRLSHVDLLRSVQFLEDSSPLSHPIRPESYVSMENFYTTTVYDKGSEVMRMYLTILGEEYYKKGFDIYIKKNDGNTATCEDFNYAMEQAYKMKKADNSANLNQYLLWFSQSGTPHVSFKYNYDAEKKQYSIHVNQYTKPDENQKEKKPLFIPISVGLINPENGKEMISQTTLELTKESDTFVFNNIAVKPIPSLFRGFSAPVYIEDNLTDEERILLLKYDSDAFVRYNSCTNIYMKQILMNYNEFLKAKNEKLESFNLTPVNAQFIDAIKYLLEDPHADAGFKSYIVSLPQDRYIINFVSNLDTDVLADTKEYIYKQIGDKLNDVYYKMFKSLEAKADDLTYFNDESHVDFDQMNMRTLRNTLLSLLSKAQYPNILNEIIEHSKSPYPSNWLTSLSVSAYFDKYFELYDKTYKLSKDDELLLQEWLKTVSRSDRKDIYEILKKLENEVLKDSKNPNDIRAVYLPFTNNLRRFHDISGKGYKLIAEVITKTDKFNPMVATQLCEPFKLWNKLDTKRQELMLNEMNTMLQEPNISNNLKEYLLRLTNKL
Kind of test: P. falciparum M1AAP inhibitors, biochemical, fluorogenic H-Leu-NHMec substrate, 1536-well (AID 1445). On the set-up: species or system Plasmodium falciparum 3D7, 3D7.

Test [3] deals with T2, Bcl-2-like protein 10 (Homo sapiens, UniProt Q9HD36).
T2 sequence (Q9HD36 whole entry): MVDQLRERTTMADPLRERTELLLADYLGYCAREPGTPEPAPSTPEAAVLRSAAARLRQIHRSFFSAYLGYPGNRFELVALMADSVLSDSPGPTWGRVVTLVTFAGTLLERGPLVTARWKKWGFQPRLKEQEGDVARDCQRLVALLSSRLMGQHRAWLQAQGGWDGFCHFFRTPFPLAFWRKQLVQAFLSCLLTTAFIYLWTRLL
Kind of test: displacers of TR3 peptide from Bcl-B, primary screen, selectivity assay for Bfl-1 inhibitor project, biochemical, fluorescence polarization, FITC-TR3 peptide (AID 748).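 Further: fluorescence polarization from a fluorescein-labelled TR3 peptide binding purified Bcl-B.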

The nature of test [4]: C. albicans growth with fluconazole, confirmation, fluorescence, retest (AID 2467). Type of test: functional, cell-based.
Test [5] deals with Intestinal-type alkaline phosphatase (Homo sapiens, UniProt P09923). Kind of test: activation of human intestinal alkaline phosphatase – biochemical, dose response (AID 488873). Type of test: functional.
Test [6] has as its target Alkaline phosphatase, placental type (Homo sapiens, UniProt P05187). Kind of test: PLAP enzyme inhibitors, confirmation, biochemical, luminescence (AID 1512). The class given is functional.
Test [7] addresses T3, Alkaline phosphatase, tissue-nonspecific isozyme (Homo sapiens, UniProt P05186).
T3 sequence (P05186 whole entry): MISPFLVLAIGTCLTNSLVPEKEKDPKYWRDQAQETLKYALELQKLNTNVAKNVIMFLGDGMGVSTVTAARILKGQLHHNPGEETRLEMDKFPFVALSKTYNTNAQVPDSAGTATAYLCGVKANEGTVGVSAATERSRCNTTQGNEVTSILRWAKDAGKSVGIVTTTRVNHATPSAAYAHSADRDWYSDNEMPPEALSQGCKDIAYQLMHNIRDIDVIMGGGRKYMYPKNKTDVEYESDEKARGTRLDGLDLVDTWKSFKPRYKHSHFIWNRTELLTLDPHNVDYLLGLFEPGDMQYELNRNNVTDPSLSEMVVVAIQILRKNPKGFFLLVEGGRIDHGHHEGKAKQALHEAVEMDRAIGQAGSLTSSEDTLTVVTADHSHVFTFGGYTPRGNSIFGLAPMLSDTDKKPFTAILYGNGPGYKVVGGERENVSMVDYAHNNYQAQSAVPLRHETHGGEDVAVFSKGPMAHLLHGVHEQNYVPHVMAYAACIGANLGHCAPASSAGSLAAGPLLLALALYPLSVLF
Kind of test: human TNAP enzyme inhibitors, SAR follow-up, biochemical, luminescent, dose response (AID 1056).

The target of test [8] is Intestinal-type alkaline phosphatase (Mus musculus, UniProt P24822). Kind of test: mouse intestinal alkaline phosphatase activators, dose response, biochemical, luminescence, uHTS hits (AID 488783). The class given is functional.
Test [9] addresses T3, Alkaline phosphatase, tissue-nonspecific isozyme. Kind of test: TNAP enzyme activators, dose response, selectivity assay for mouse IAP activator project, biochemical, TNAP isozyme, mouse IAP uHTS hits (AID 488880). The class given is functional.
The target of test [10] is T4, Rac GTPase-activating protein 1 (Homo sapiens, UniProt Q9H0H5).
T4 sequence (Q9H0H5 whole entry): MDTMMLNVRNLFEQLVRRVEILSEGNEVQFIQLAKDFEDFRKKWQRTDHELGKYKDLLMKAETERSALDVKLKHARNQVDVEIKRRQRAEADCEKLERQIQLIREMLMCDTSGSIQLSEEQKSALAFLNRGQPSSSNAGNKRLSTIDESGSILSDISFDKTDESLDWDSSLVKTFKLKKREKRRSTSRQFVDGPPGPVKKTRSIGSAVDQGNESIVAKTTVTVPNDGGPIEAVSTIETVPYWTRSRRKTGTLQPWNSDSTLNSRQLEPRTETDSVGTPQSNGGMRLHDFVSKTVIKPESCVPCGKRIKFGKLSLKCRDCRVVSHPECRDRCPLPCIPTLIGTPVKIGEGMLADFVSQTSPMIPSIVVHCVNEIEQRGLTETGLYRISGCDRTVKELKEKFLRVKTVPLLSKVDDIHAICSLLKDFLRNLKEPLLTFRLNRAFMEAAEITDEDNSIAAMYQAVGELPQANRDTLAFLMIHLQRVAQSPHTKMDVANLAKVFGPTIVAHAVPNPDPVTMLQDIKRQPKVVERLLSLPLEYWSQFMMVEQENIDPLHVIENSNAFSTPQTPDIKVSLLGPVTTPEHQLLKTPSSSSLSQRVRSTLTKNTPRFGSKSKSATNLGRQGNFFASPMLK
Kind of test: MgcRacGAP GTPase-activating activity inhibitors, confirmation, biochemical, ADP Hunter fluorescence, primary and confirmatory (AID 624330). The class given is functional.

The target in test [11] is T5, Kappa-type opioid receptor (Homo sapiens, UniProt P41145). The test can be described thus: KOR agonist analogs, arrestin-GFP redistribution, SAR follow-up, imaging, image-based, set 3 (AID 488833). The class given is functional.
The target in test [12] is Mu-type opioid receptor (Homo sapiens, UniProt P35372). Kind of test: SAR Analysis of Agonists of the MOR Receptor using an Image-Based Assay - Set 3. [Related pubchem assays (depositor defined):AID1777, AID1785, AID1786, AID1966, AID2133, AID2136, AID2284, AID2285, AID2352]. The class given is functional.
In test [13] the target is Delta-type opioid receptor (Homo sapiens, UniProt P41143). The test can be described thus: SAR Analysis of Agonists of the DOR Receptor using an Image-Based Assay - Set 3. [Related pubchem assays (depositor defined):AID1777, AID1786]. The class given is functional.
For test [14], the target named is T5, Kappa-type opioid receptor. The test can be described thus: SAR analysis of small molecule agonists of the kappa opioid receptor via a luminescent beta-arrestin assay - Set 3. [Related pubchem assays (depositor defined):AID1777, AID1785, AID1786, AID1966, AID2133, AID2136, AID2284, AID2500]. The class given is functional.
The target in test [15] is Genome polyprotein (Hepatitis C virus, UniProt Q2Q167). Kind of test: HCV core protein dimerization inhibitors, dose response, biochemical, TR-FRET (AID 2159).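 Further: blocks dimerization of HCV core protein measured by TR-FRET between tagged core106 pairs.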 Also on record: species or system Hepacivirus hominis. For orientation: In TR-FRET formats the signal depends on donor and acceptor labels being close together.
Test [16] has as its target T6, Runt-related transcription factor 1/Core-binding factor subunit beta (Homo sapiens, UniProt Q01196+Q13951). Kind of test: inhibitors of RUNX1 Runt–CBFb-SMMHC binding, primary screen, biochemical, FRET, Cerulean-Runt, Venus-CBFb-SMMHC, uHTS (AID 1434).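 Further: partner is the CBFb-SMMHC leukemia fusion protein rather than wild-type CBFb.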 Type of test: protein assay.
Test [17] concerns the target T6, Runt-related transcription factor 1/Core-binding factor subunit beta. Kind of test: inhibitors of RUNX1 Runt–CBFb-SMMHC binding, biochemical, TR-FRET (AID 1438). Type of test: protein assay.
The target in test [18] is T7, Bcl-2-related protein A1 (Mus musculus, UniProt Q07440).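 Further: confirmatory dose–response counterscreen on Bfl-1, used to check hits from a UBC13 polyubiquitin inhibitor campaign.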
T7 sequence (Q07440 whole entry): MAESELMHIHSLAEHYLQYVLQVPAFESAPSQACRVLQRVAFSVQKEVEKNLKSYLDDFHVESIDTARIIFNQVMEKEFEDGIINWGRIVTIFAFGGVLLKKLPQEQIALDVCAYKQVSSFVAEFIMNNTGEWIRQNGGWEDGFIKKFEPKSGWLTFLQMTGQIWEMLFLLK
Type of test: functional.

For test [19], the target named is T8, Ubiquitin-conjugating enzyme E2 N (Homo sapiens, UniProt P61088).
T8 sequence (P61088 whole entry): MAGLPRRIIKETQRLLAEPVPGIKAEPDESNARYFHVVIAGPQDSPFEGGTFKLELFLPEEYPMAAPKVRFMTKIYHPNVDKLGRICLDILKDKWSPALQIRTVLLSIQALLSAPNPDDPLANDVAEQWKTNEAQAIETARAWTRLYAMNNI
Type of test: functional.

Test [20] addresses T8, Ubiquitin-conjugating enzyme E2 N. Type of test: functional. This is another data set of the same source.

Active and inactive are the calls of the source.

As a reminder, the EC50 is the concentration at which the effect is half-maximal. By IC50 is commonly meant the concentration at which inhibition is half-maximal.

T5 sequence (P41145 whole entry): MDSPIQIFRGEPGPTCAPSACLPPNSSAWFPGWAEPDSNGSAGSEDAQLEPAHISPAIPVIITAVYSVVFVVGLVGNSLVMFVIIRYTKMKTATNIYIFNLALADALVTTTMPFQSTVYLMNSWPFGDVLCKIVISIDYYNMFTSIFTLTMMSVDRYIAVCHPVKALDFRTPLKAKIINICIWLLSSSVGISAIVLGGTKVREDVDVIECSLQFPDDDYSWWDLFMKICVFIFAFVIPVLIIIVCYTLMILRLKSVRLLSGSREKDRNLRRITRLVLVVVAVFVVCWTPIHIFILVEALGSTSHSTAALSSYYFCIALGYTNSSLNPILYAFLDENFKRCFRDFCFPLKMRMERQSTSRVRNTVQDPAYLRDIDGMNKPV
T6 sequence (Q01196 whole entry, the tested form may be a part): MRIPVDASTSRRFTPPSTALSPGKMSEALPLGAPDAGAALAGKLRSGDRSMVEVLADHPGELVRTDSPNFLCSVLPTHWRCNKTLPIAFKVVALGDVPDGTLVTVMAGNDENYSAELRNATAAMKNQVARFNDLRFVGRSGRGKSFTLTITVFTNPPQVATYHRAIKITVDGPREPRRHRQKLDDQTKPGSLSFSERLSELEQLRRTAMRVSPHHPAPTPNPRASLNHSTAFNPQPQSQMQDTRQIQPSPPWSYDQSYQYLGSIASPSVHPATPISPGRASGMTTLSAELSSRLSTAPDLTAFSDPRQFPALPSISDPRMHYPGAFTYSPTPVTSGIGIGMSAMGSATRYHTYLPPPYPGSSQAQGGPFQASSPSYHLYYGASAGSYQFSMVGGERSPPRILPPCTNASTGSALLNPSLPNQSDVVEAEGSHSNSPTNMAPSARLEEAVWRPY
T6 sequence (Q13951 whole entry, the tested form may be a part): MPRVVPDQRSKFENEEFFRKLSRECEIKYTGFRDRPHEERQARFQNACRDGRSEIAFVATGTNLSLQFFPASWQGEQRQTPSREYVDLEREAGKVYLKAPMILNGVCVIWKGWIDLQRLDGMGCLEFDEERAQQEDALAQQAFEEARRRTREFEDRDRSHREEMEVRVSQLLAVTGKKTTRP
Chain of Intestinal-type alkaline phosphatase (Homo sapiens, UniProt P09923) (P09923 whole entry): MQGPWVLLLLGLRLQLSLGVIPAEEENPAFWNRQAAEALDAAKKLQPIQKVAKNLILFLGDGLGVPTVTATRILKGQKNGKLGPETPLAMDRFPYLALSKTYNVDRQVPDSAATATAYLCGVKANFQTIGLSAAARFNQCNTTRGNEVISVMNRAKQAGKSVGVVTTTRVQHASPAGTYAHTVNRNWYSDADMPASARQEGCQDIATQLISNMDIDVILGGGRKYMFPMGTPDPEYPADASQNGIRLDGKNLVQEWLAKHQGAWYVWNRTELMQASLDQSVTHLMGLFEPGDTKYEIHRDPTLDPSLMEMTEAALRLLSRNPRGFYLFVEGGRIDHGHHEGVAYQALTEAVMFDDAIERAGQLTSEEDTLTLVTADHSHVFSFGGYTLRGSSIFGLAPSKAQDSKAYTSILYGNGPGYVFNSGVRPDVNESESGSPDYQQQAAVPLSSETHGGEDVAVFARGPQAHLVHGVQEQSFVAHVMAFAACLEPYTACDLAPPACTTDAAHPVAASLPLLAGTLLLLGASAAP
Chain of Delta-type opioid receptor (P41143 whole entry): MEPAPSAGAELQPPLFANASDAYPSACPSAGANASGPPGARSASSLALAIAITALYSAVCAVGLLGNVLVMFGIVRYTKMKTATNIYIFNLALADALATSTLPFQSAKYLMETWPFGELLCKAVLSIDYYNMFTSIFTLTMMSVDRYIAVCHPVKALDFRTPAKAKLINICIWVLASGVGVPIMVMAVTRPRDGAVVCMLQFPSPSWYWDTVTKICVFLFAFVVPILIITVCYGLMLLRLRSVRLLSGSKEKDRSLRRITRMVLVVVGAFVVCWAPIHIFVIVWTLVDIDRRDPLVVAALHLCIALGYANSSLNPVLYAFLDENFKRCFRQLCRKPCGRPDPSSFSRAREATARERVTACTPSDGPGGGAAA
Chain of Intestinal-type alkaline phosphatase (Mus musculus, UniProt P24822) (P24822 whole entry): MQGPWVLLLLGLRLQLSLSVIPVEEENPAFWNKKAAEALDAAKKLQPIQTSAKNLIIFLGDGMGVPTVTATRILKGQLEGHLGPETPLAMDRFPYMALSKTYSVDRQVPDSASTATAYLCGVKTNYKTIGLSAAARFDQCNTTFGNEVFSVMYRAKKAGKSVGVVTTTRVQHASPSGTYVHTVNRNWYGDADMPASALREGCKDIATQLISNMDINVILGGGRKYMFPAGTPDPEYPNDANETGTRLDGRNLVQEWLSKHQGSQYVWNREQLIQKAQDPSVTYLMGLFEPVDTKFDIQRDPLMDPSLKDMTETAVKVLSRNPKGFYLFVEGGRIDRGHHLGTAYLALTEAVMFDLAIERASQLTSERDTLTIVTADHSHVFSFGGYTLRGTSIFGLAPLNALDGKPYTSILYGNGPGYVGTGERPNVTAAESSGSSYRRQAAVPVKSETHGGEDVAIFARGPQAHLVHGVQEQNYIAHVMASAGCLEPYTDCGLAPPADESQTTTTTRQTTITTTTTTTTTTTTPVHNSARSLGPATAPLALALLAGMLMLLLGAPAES
Chain of Genome polyprotein (Q2Q167 whole entry, the tested form may be a part): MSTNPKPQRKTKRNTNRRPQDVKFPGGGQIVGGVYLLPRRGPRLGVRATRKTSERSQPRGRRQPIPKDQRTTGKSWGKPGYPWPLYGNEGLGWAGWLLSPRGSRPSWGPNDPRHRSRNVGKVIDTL
Chain of Alkaline phosphatase, placental type (P05187 whole entry): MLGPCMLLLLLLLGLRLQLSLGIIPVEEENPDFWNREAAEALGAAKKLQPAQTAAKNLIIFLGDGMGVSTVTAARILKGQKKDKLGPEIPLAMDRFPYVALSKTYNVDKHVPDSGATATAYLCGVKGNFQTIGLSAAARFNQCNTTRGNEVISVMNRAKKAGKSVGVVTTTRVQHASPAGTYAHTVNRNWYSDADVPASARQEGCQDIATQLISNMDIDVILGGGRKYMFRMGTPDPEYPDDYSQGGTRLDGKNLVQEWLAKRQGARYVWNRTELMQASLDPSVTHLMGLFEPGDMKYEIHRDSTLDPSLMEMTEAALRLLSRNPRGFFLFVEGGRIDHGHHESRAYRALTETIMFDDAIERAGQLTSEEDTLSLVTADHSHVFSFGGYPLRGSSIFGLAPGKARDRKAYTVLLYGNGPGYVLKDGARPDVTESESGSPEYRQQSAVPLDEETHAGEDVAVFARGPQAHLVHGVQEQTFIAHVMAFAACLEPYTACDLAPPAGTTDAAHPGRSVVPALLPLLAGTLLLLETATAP
Chain of Mu-type opioid receptor (P35372 whole entry): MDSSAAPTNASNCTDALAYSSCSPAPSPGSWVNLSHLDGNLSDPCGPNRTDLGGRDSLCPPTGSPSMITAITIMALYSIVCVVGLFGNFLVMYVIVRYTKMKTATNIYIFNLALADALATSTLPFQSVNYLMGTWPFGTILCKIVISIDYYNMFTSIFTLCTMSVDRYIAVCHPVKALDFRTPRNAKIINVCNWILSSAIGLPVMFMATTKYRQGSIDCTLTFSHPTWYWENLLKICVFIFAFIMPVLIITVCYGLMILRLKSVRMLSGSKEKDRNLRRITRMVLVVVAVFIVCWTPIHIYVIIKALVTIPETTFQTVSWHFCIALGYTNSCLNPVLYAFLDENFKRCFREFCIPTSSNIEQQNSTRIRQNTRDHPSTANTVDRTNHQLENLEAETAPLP

In the case of `CCn1c(CSc2nc3ccccc3s2)nnc1SCC(=O)c1ccc(O)c(O)c1`, the EC50 in [1] is > 160 µM (inactive); in test [4], > 38 µM (not active); in [5], > 100 µM (inactive); in [8], 1.84 µM (active); in test [9], 64.2 µM (active). Moreover, the IC50 in test [2] is 68.8 µM (active); in [3], > 100 µM (inactive); in test [6] it was 3.87 µM (inactive); in [7] it was > 100 µM (inactive); in [10] it was 179 µM (active).

As for `O=[N+]([O-])c1ccc(CSc2nnc(-c3ccccn3)n2Cc2cccs2)cc1`, the EC50 in [11] is 0.956 µM (active); in [12] it was > 32 µM (inactive); in [13] it was > 64 µM (inactive); in test [14], 1.24 µM (active).

On to `Cc1cccc(C(=O)/N=c2\c(C#N)cc3c(=O)n4cccc(C)c4nc3n2Cc2ccco2)c1`, for which the figures for the 50% inhibitory concentration (IC50) in test [15], in test [16] and in test [17] were > 49.8 µM (not active), 0.429 µM (active) and 6.54 µM (active), respectively.

As to `CCCCN(CC)CCNC(=O)c1cc2c(=O)n(CC)c3ccccc3c2s1`, the IC50 was > 20 µM (inactive) in test [18], 18.1 µM (active) in test [19] and 5.26 µM (active) in [20].

(Values after ChEMBL document CHEMBL1201862, “PubChem BioAssay data set” (2004).)
